In patent publication US20230009626A1 (ICHNOS SCIENCES S.A., priority 2018, published 2023):

Target: HPK1 (MAP4K1) (Homo sapiens, UniProt Q92918)
Assay: FRET Assay for HPK1 (MAP4K1): one step binding assay, displacement of labeled tracer
Settings: for inhibition at 1 µM: 1 μM compound; for inhibition at 1 µM / inhibition at 10 µM: FRET ratio 665/620, percent of control; for IC50: dose response curve, nonlinear regression; for inhibition at 10 µM: 10 μM compound
Description: FRET Assay for HPK1 (MAP4K1):
This is a one step binding assay based on the binding and displacement of the labeled tracer, where compound addition is followed by addition of the anti-GST tagged europium (Eu) as the donor and Alexa Fluor-labeled tracer as the acceptor. Simultaneous binding of both the tracer and GST-antibody to the kinase domain of HPK1 results in a high degree of FRET (fluorescence resonance energy transfer) from the anti-GST tagged europium (Eu) fluorophore to the Alexa Fluor® 647 fluorophore on the kinase tracer and this signal is reduced in presence of the inhibitor that can be measured.
Test compounds or reference compounds such as Sunitinib (Sigma) were dissolved in dimethylsulfoxide (DMSO) to prepare 10.0 mM stock solutions and diluted to the desired concentration. The final concentration of DMSO in the reaction was 3% (v/v). The assay mixture was prepared by mixing 4 nM of the Eu-Anti-GST Antibody and 10 nM MAP4K-1 enzyme in the Kinase buffer containing 50mM HEPES (pH 7.5), 10 mM MgCl2, 1 mM EGTA, 0.01% Brij-35 with or without the desired concentration of the compound. The reaction was incubated on ice for 15 mins. The pre-incubation step was followed by addition of the 20 nM Kinase Tracer 222 into the reaction mixture. After shaking for 5 min the reaction was further incubated for 1 hour at room temperature and this was kept at 4° C. and read on ARTEMIS reader as per the kit instructions (Thermo). […] The activity was calculated as percent of control reaction. IC50 values were calculated from dose response curve by nonlinear regression analysis using GraphPad Prism software.
Percentage inhibition at concentrations of 1.0 μM and 10.0 μM are given in the table along with IC50 (nM) details for selected examples.

Chain of HPK1 (MAP4K1) (Q92918 whole entry): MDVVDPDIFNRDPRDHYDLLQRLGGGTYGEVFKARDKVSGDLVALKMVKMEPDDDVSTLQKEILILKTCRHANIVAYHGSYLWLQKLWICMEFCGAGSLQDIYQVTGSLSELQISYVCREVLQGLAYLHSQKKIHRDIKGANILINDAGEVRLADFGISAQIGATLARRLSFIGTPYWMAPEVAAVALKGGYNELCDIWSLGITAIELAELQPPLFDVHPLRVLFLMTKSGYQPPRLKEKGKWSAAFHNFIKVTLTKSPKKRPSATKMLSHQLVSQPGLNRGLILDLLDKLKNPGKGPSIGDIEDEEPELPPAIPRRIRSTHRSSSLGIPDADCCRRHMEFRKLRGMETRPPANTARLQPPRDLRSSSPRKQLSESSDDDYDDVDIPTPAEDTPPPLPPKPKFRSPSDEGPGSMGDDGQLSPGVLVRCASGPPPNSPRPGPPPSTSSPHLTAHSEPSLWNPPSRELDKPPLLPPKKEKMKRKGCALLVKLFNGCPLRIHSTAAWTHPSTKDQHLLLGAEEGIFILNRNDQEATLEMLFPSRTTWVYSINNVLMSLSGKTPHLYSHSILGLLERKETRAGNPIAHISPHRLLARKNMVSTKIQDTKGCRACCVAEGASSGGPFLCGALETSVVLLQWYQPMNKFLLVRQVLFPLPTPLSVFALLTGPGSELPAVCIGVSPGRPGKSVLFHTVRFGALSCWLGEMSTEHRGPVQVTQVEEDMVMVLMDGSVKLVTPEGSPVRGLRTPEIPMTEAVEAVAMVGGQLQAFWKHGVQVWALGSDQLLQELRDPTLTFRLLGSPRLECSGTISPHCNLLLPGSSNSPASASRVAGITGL

SMILES	inhibition at 1 µM [%]	IC50 [nM]	inhibition at 10 µM [%]
CC/C(Nc1cnn(C(C)(C)C#N)c1)=C1/C(=O)Nc2cnc(-c3cnccc3C)cc21 [Example 91, (Z)-2-Methyl-2-(4-((1-(5-(4-methylpyridin-3-yl)-2-oxo-1H-pyrrolo[2,3-c]pyridin-3(2H)-ylidene)propyl)amino)-1H-pyrazol-1-yl)propanenitrile]	79.7	< 50	
COc1cccc(F)c1-c1cc2c(cn1)NC(=O)/C2=C(/C)Nc1ccn(C(C)(C)C#N)n1 [Example 93, (Z)-2-(3-((1-(5-(2-Fluoro-6-methoxyphenyl)-2-oxo-1H-pyrrolo[2,3-c]pyridin-3(2H)-ylidene)ethyl)amino)-1H-pyrazol-1-yl)-2-methylpropanenitrile]	73.8	< 50	76.4
C/C(Nc1cnn(C)c1)=C1/C(=O)Nc2cnc(-c3cncc(F)c3C)cc21 [Example 148, (Z)-5-(5-Fluoro-4-methylpyridin-3-yl)-3-(1-((1-methyl-1H-pyrazol-4-yl)amino)ethylidene)-1H-pyrrolo[2,3-c]pyridin-2(3H)-one]	82.4	< 50	94
C/C(Nc1ccn(C[C@H](C)O)n1)=C1/C(=O)Nc2cnc(-c3cnccc3C)cc21 [Example 133, (S,Z)-3-(1-((1-(2-Hydroxypropyl)-1H-pyrazol-3-yl)amino)ethylidene)-5-(4-methylpyridin-3-yl)-1H-pyrrolo[2,3-c]pyridin-2(3H)-one]	79.9	< 50	88
COCCn1cc(N/C(C)=C2\C(=O)Nc3cnc(-c4c(F)cccc4OC)cc32)cn1 [Example 39, (Z)-5-(2-Fluoro-6-methoxyphenyl)-3-(1-((1-(2-methoxyethyl)-1H-pyrazol-4-yl)amino)ethylidene)-1H-pyrrolo[2,3-c]pyridin-2(3H)-one]	72.2	< 50	86.6
C/C(Nc1ccc(N2CCN(C3COC3)CC2)nc1)=C1/C(=O)Nc2ccc(F)cc21 [Example 5, (Z)-5-Fluoro-3-(1-((6-(4-(oxetan-3-yl)piperazin-1-yl)pyridin-3-yl)amino)ethylidene)indolin-2-one]	76.1	100 to 500	85.5
C/C(Nc1ccn(C2COC2)n1)=C1/C(=O)Nc2cnc(-c3cnccc3C)cc21 [Example 76, (Z)-5-(4-Methylpyridin-3-yl)-3-(1-((1-(oxctan-3-yl)-1H-pyrazol-3-yl)amino)ethylidene)-1H-pyrrolo[2,3-c]pyridin-2(3H)-one]	70.3	< 50	69
CC/C(Nc1cnn(C)c1)=C1/C(=O)Nc2cnc(-c3c(F)cccc3OC)cc21 [Example 32, (Z)-5-(2-Fluoro-6-methoxyphenyl)-3-(1-((1-methyl-1H-pyrazol-4-yl)amino)propylidene)-1H-pyrrolo[2,3-c]pyridin-2(3H)-one]	90.3	< 50	100
C/C(Nc1ccn(C2CCOCC2)n1)=C1/C(=O)Nc2cnc(-c3cnccc3C)cc21 [Example 83, (Z)-5-(4-Methylpyridin-3-yl)-3-(1-((1-(tetrahydro-2H-pyran-4-yl)-1H-pyrazol-3-yl)amino)ethylidene)-1H-pyrrolo[2,3-c]pyridin-2(3H)-one]	27.7		43.5
C/C(Nc1cnn(C)c1)=C1/C(=O)Nc2cc(C#N)c(-c3cnccc3C)cc21 [Example 151, (Z)-3-(1-((1-Methyl-1H-pyrazol-4-yl)amino)ethylidene)-5-(4-methylpyridin-3-yl)-2-oxoindoline-6-carbonitrile]	85.2	< 50	65.2
COc1cccc(F)c1-c1ccc2c(c1)/C(=C(\C)Nc1ccc(N3CCNCC3)cc1)C(=O)N2 [Example 8, (Z)-5-(2-Fluoro-6-methoxyphenyl)-3-(1-((4-(piperazin-1-yl)phenyl)amino)ethylidene)indolin-2-one]	84.8	< 50	83.8
COc1cccc(F)c1-c1cc2c(cn1)NC(=O)/C2=C(/C)Nc1ccc(N2CCN(C)CC2)cc1 [Example 14, (Z)-5-(2-fluoro-6-methoxyphenyl)-3-(1-((4-(4-methylpiperazin-1-yl)phenyl)amino)ethylidene)-1H-pyrrolo[2,3-c]pyridin-2(3H)-one]	86.3	< 50	88.3
C/C(Nc1cnn(C)c1)=C1/C(=O)Nc2cnc(-c3cnc4c(c3C)NCCO4)cc21 [Example 45, (Z)-3-(1-((1-Methyl-1H-pyrazol-4-yl)amino)ethylidene)-5-(8-methyl-2,3-dihydro-1H-pyrido[2,3-b][1,4]oxazin-7-yl)-1H-pyrrolo[2,3-c]pyridin-2(3H)-one]	72.4	100 to 500	86
C/C(Nc1ccn(C(F)F)n1)=C1/C(=O)Nc2cnc(-c3cnccc3C)cc21 [Example 81, (Z)-3-(1-((1-(Difluoromethyl)-1H-pyrazol-3-yl)amino)ethylidene)-5-(4-methylpyridin-3-yl)-1H-pyrrolo[2,3-c]pyridin-2(3H)-one]	73.8	< 50	82.2
C/C(Nc1ccn(C)n1)=C1/C(=O)Nc2cnc(-c3cnccc3C)cc21 [Example 54, (Z)-3-(1-((1-methyl-1H-pyrazol-3-yl)amino)ethylidene)-5-(4-methylpyridin-3-yl)-1H-pyrrolo[2,3-c]pyridin-2(3H)-one]	88.5	< 50	86.1
C/C(Nc1ccn([C@H](C)CO)n1)=C1/C(=O)Nc2cnc(-c3cnccc3C)cc21 [Example 137, (R,Z)-3-(1-((1-(1-Hydroxypropan-2-yl)-1H-pyrazol-3-yl)amino)ethylidene)-5-(4-methylpyridin-3-yl)-1H-pyrrolo[2,3-c]pyridin-2(3H)-one]	80.7	< 50	80.2
C/C(Nc1cnn(CC(F)F)c1)=C1/C(=O)Nc2cnc(-c3cnccc3C)cc21 [Example 61, (Z)-3-(1-((1-(2,2-Difluoroethyl)-1H-pyrazol 4-yl)amino)ethylidene)-5-(4-methylpyridin-3-yl)-1H pyrrolo[2,3-c]pyridin-2(3H)-one]	71.6	< 50	81.3

Now from value to compound:

inhibition at 1 µM [%]	IC50 [nM]	inhibition at 10 µM [%]	SMILES
63.4	50 to 100	77	COc1cccc(F)c1-c1cc2c(cn1)NC(=O)/C2=C(/C)Nc1cnn([C@H](C)C#N)c1 [Example 171, (R,Z)-2-(4-((1-(5-(2-Fluoro-6-methoxyphenyl)-2-oxo-1H-pyrrolo[2,3-c]pyridin-3(2H)-ylidene)ethyl)amino)-1H-pyrazol-1-yl)propanenitrile]
65.1	< 50	68.8	CNC(=O)C(F)(F)n1ccc(N/C(C)=C2\C(=O)Nc3cnc(-c4cnccc4C)cc32)n1 [Example 155, (Z)-2,2-Difluoro-N-methyl-2-(3-((1-(5-(4-methylpyridin-3-yl)-2-oxo-1H-pyrrolo[2,3-c]pyridin-3(2H)-ylidene)ethyl)amino)-1H-pyrazol-1-yl)acetamide]
60.9	50 to 100	75.2	C/C(Nc1cnn(C)c1)=C1/C(=O)Nc2cnc(-c3c(C)cccc3F)cc21 [Example 164, (Z)-5-(2-Fluoro-6-methylphenyl)-3-(1-((1-methyl-1H-pyrazol-4-yl)amino)ethylidene)-1H-pyrrolo[2,3-c]pyridin-2(3H)-one]
81.2	< 50	81	C/C(Nc1cnn(C)c1)=C1/C(=O)Nc2ccc(-c3cnccc3C)cc21 [Example 161, (Z)-3-(1-((1-Methyl-1H-pyrazol-4-yl)amino)ethylidene)-5-(4-methylpyridin-3-yl)indolin-2-one]
69.7	< 50	67.7	C/C(Nc1cc(C)n([C@@H](C)C#N)n1)=C1/C(=O)Nc2cnc(-c3cnccc3C)cc21 [Example 214, (S,Z)-2-(5-Methyl-3-((1-(5-(4-methylpyridin-3-yl)-2-oxo-1H-pyrrolo[2,3-c]pyridin-3(2H)-ylidene)ethyl)amino)-1H-pyrazol-1-yl)propanenitrile]
72.6	< 50		C/C(Nc1nn(C)c2ccccc12)=C1/C(=O)Nc2cnc(-c3cnccc3C)cc21 [Example 175, (Z)-3-(1-((1-Methyl-1H-indazol-3-yl)amino)ethylidene)-5-(4-methylpyridin-3-yl)-1H-pyrrolo[2,3-c]pyridin-2(3H)-one]
72.7	< 50	86.1	C/C(Nc1cc(C)n(CCC(C)C)n1)=C1/C(=O)Nc2cnc(-c3cnccc3C)cc21 [Example 204, (Z)-3-(1-((1-Isopentyl-5-methyl-1H-pyrazol-3-yl)amino)ethylidene)-5-(4-methylpyridin-3-yl)-1H-pyrrolo[2,3-c]pyridin-2(3H)-one]
